Reference: patent US9212163B2, “Pesticidal compositions and processes related thereto” (Dow AgroSciences LLC, priority 2012, dated 2015)

Key:
[1] = system: Beet Armyworm (BAW) (Spodoptera exigua); experiment: Bioassay on Beet Armyworm (BAW), 128-well diet tray assay; format: in vivo; conditions: for pest or weed control at 50 µg/cm2, 50 µg/cm2 / pest or weed control at 50 µg/cm2: Spodoptera exigua, read-out: BAW Rating; for pest or weed control at 50 µg/cm2, 50 µg/cm2: 168 h, % mortality, second instar larvae, 50 μg/cm^2 on artificial diet, 25° C., five to seven days, average of eight wells; for pest or weed control at 50 µg/cm2: Table 5: Prophetic Compounds Subsequently Exemplified; for BAW Rating: Table 3: Assay Results Part 1
How it was run: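 Artificial diet treated with 50 μg/cm^2 compound in 90:10 acetone-water was dried, then one to five second-instar larvae were placed per well, eight wells per compound. Trays were held at 25° C., 14:10 light-dark for five to seven days, and percent mortality averaged across wells.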

[2] = system: Cabbage Looper (CL) (Trichoplusia ni); experiment: Bioassay on Cabbage Looper (CL), 128-well diet tray assay; format: in vivo; conditions: read-out: CL Rating; for pest or weed control at 50 µg/cm2, 50 µg/cm2: 168 h, % mortality, second instar larvae, 50 μg/cm^2 on artificial diet, 25° C., five to seven days, average of eight wells; for pest or weed control at 50 µg/cm2: Table 5: Prophetic Compounds Subsequently Exemplified
Description: Certain molecules disclosed in this document were tested against BAW, CEW and CL using procedures described in the following examples. In the reporting of the results, the “BAW & CEW & CL Rating Table” was used (See Table Section).
Bioassays on CL (Trichoplusia ni)
Bioassays on CL were conducted using a 128-well diet tray assay. One to five second instar CL larvae were placed in each well (3 mL) of the diet tray that had been previously filled with 1 mL of artificial diet to which 50 μg/cm^2 of the test compound (dissolved in 50 μL of 90:10 acetone-water mixture) had been applied (to each of eight wells) and then allowed to dry. Trays were covered with a clear self-adhesive cover, and held at 25° C., 14:10 light-dark for five to seven days. Percent mortality was recorded for the larvae in each well; activity in the eight wells was then averaged. The results are indicated in the table entitled “Table 4: Assay Results Part 2” (See Table Section).

Structure (SMILES) | pest or weed control at 50 µg/cm2, 50 µg/cm2 [1] | pest or weed control at 50 µg/cm2, 50 µg/cm2 [2] | pest or weed control at 50 µg/cm2 [1] | pest or weed control at 50 µg/cm2 [2] | BAW Rating [1]
O=C(NC1(C(=O)NCC(F)(F)F)CC1)c1ccc(/C=C/[C@H](c2cc(Cl)c(Cl)c(Cl)c2)C(F)(F)F)cc1C(F)(F)F (single isomer, unassigned) [Compound F8A] | 50 to 100% | 50 to 100% | – | – | –
O=C(NC1(C(=O)NCC(F)(F)F)CC1)c1ccc(/C=C/[C@@H](c2cc(Cl)c(Cl)c(Cl)c2)C(F)(F)F)cc1C(F)(F)F (single isomer, unassigned) [Compound F8B] | 50 to 100% | 50 to 100% | – | – | –
Cc1cc(/C=C/C(c2cc(Cl)c(Cl)c(Cl)c2)C(F)(F)F)ccc1C(=O)NC1(C(=O)NCC(F)(F)F)CC1 (stereo not shown) [Compound F2] | 50 to 100% | 50 to 100% | – | – | –
O=C(NC1(C(=O)NCC(F)(F)F)CC1)c1ccc(/C=C/C(c2cc(Cl)c(Cl)c(Cl)c2)C(F)(F)F)cc1Br (stereo not shown) [Compound F3] | 50 to 100% | 50 to 100% | – | – | –
O=C(NC1(C(=O)NCC(F)(F)F)CCC1)c1ccc(/C=C/C(c2cc(Cl)c(Cl)c(Cl)c2)C(F)(F)F)cc1Cl (stereo not shown) [Compound F4] | 50 to 100% | 50 to 100% | – | – | –
O=C(NC1(C(=O)NCC(F)(F)F)CCC1)c1ccc(/C=C/C(c2cc(Cl)c(Cl)c(Cl)c2)C(F)(F)F)cc1Br (stereo not shown) [Compound F5] | 50 to 100% | 50 to 100% | – | – | –
O=C(NC1(C(=S)NCC(F)(F)F)CC1)c1ccc(/C=C/C(c2cc(Cl)c(Cl)c(Cl)c2)C(F)(F)F)cc1C(F)(F)F (stereo not shown) [Compound F6, (E)-4-(4,4,4-Trifluoro-3-(3,4,5-trichlorophenyl)but-1-enyl)-N-(1-(2,2,2-trifluoroethylcarbamothioyl)cyclopropyl)-2-(trifluoromethyl)benzamide] | 50 to 100% | 50 to 100% | – | – | –
N#CC1(NC(=O)c2ccc(/C=C/C(c3cc(Cl)c(Cl)c(Cl)c3)C(F)(F)F)cc2Br)CC1 (stereo not shown) [Compound F7, (E)-2-Bromo-N-(1-cyanocyclopropyl)-4-(4,4,4-trifluoro-3-(3,4,5-trichlorophenyl)but-1-en-1-yl)benzamide] | 50 to 100% | 50 to 100% | – | – | –
O=C(NC1(C(=O)NCC(F)(F)F)CC1)c1ccc(/C=C/C(c2cc(Cl)c(Cl)c(Cl)c2)C(F)(F)F)cc1Cl (stereo not shown) [Compound F8] | 50 to 100% | 50 to 100% | – | – | –
O=C(NC1CC1(F)F)c1ccc(/C=C/C(c2cc(Cl)c(Cl)c(Cl)c2)C(F)(F)F)cc1Br (stereo not shown) [Compound P31] | – | – | 50 to 100% | 50 to 100% | –
O=C(NC1(C(=O)NCC(F)(F)F)CC1)c1ccc(/C=C/C(c2ccc(F)c(F)c2F)C(F)(F)F)cc1C(F)(F)F (stereo not shown) [Compound P65] | – | – | 50 to 100% | 50 to 100% | –
O=C(NC1(C(=O)NCC(F)(F)F)CC1)c1ccc(/C=C/C(c2cc(Cl)c(Cl)cc2Cl)C(F)(F)F)cc1Br (stereo not shown) [Compound P108] | – | – | 50 to 100% | 50 to 100% | –
O=C(NC1(C(=O)NCC(F)(F)F)CC1)c1ccc(/C=C/C(c2cc(Cl)c(Cl)cc2Cl)C(F)(F)F)cc1C(F)(F)F (stereo not shown) [Compound P110] | – | – | 50 to 100% | 50 to 100% | –
O=C(NC1(C(=O)NCC(F)(F)F)CC1)c1ccc(/C=C/C(c2cccc(OC(F)(F)F)c2)C(F)(F)F)cc1Br (stereo not shown) [Compound P153] | – | – | 50 to 100% | 50 to 100% | –
O=C(NC1(C(=O)NCC(F)(F)F)CC1)c1ccc(/C=C/C(c2cccc(OC(F)(F)F)c2)C(F)(F)F)cc1C(F)(F)F (stereo not shown) [Compound P155] | – | – | 50 to 100% | 50 to 100% | –
O=C(NC1(C(=O)NCC(F)(F)F)CC1)c1ccc(/C=C/C(c2cc(F)cc(Br)c2)C(F)(F)F)cc1Br (stereo not shown) [Compound P198] | – | – | 50 to 100% | 50 to 100% | –
O=C(NC1(C(=O)NCC(F)(F)F)CC1)c1ccc(/C=C/C(c2cc(F)cc(Br)c2)C(F)(F)F)cc1C(F)(F)F (stereo not shown) [Compound P200] | – | – | 50 to 100% | 50 to 100% | –
Cc1cc(C(/C=C/c2ccc(C(=O)NC3(C(=O)NCC(F)(F)F)CC3)c(Br)c2)C(F)(F)F)ccc1Cl (stereo not shown) [Compound P243] | – | – | 50 to 100% | 50 to 100% | –
Cc1cc(C(/C=C/c2ccc(C(=O)NC3(C(=O)NCC(F)(F)F)CC3)c(C(F)(F)F)c2)C(F)(F)F)ccc1Cl (stereo not shown) [Compound P245] | – | – | 50 to 100% | 50 to 100% | –
Cc1cc(C(/C=C/c2ccc(C(=O)NC3(C(=O)NCC(F)(F)F)CC3)c(Br)c2)C(F)(F)F)cc(C)c1F (stereo not shown) [Compound P333] | – | – | 50 to 100% | 50 to 100% | –

Structure (SMILES) | pest or weed control at 50 µg/cm2, 50 µg/cm2 [1] | pest or weed control at 50 µg/cm2, 50 µg/cm2 [2] | pest or weed control at 50 µg/cm2 [1] | pest or weed control at 50 µg/cm2 [2] | BAW Rating [1]
Cc1cc(C(/C=C/c2ccc(C(=O)NC3(C(=O)NCC(F)(F)F)CC3)c(C(F)(F)F)c2)C(F)(F)F)cc(C)c1F (stereo not shown) [Compound P335] | – | – | 50 to 100% | 50 to 100% | –
Cc1cc(C(/C=C/c2ccc(C(=O)NC3(C(=O)NCC(F)(F)F)CC3)c(C(F)(F)F)c2)C(F)(F)F)ccc1F (stereo not shown) [Compound P336] | – | – | 50 to 100% | 50 to 100% | –
O=C(NC1(C(=O)NCC(F)(F)F)CC1)c1ccc(/C=C/C(c2cc(Cl)cc(Br)c2)C(F)(F)F)cc1Br (stereo not shown) [Compound P378] | – | – | 50 to 100% | 50 to 100% | –
O=C(NC1(C(=O)NCC(F)(F)F)CC1)c1ccc(/C=C/C(c2cc(Cl)cc(Br)c2)C(F)(F)F)cc1C(F)(F)F (stereo not shown) [Compound P380] | – | – | 50 to 100% | 50 to 100% | –
O=C(NC1(C(=O)NCC(F)(F)F)CC1)c1ccc(/C=C/C(c2ccc(Br)c(Br)c2)C(F)(F)F)cc1Br (stereo not shown) [Compound P423] | – | – | 50 to 100% | 50 to 100% | –
O=C(NC1(C(=O)NCC(F)(F)F)CC1)c1ccc(/C=C/C(c2ccc(Br)c(Br)c2)C(F)(F)F)cc1C(F)(F)F (stereo not shown) [Compound P425] | – | – | 50 to 100% | 50 to 100% | –
O=C(NC1(C(=O)NCC(F)(F)F)CC1)c1ccc(/C=C/C(c2ccc(Cl)c([N+](=O)[O-])c2)C(F)(F)F)cc1Br (stereo not shown) [Compound P468] | – | – | 50 to 100% | 50 to 100% | –
N#Cc1cc(C(/C=C/c2ccc(C(=O)NC3(C(=O)NCC(F)(F)F)CC3)c(Br)c2)C(F)(F)F)ccc1F (stereo not shown) [Compound P513] | – | – | 50 to 100% | 50 to 100% | –
N#Cc1cc(C(/C=C/c2ccc(C(=O)NC3(C(=O)NCC(F)(F)F)CC3)c(C(F)(F)F)c2)C(F)(F)F)ccc1F (stereo not shown) [Compound P515] | – | – | 50 to 100% | 50 to 100% | –
Cc1cc(C(/C=C/c2ccc(C(=O)NC3(C(=O)NCC(F)(F)F)CC3)c(Br)c2)C(F)(F)F)ccc1F (stereo not shown) [Compound P693] | – | – | 50 to 100% | 50 to 100% | –
O=C(NC1(C(=O)NCC(F)(F)F)CC1)c1ccc(/C=C/C(c2cc(Cl)c(Cl)c(Cl)c2)C(F)(F)C(F)(F)F)cc1Br (stereo not shown) [Compound P1003] | – | – | 50 to 100% | 50 to 100% | –
O=C(NC1(C(=O)NCC(F)(F)F)CC1)c1ccc(/C=C/C(c2cc(Cl)c(Cl)c(Cl)c2)C(F)(F)C(F)(F)F)cc1C(F)(F)F (stereo not shown) [Compound P1005] | – | – | 50 to 100% | 50 to 100% | –
O=C(NC1(C(=S)NCC(F)(F)F)CC1)c1ccc(/C=C/C(c2cc(Cl)c(Cl)c(Cl)c2)C(F)(F)F)cc1Br (stereo not shown) [Compound P1009] | – | – | 50 to 100% | 50 to 100% | –
O=C(NC1(C(=S)NCC(F)(F)F)CC1)c1ccc(/C=C/C(c2cc(Cl)c(Cl)c(Cl)c2)C(F)(F)F)cc1Cl (stereo not shown) [Compound P1010] | – | – | 50 to 100% | 50 to 100% | –
Cc1cc(/C=C/C(c2cc(Cl)c(Cl)c(Cl)c2)C(F)(F)F)ccc1C(=O)NC1(C(=S)NCC(F)(F)F)CC1 (stereo not shown) [Compound P1011] | – | – | 50 to 100% | 50 to 100% | –
O=C(NC1(C(=O)NCC(F)F)CC1)c1ccc(/C=C/C(c2cc(Cl)c(Cl)c(Cl)c2)C(F)(F)F)cc1C(F)(F)F (stereo not shown) [Compound P1015] | – | – | 50 to 100% | 50 to 100% | –
O=C(NC1(C(=O)NCCF)CC1)c1ccc(/C=C/C(c2cc(Cl)c(Cl)c(Cl)c2)C(F)(F)F)cc1C(F)(F)F (stereo not shown) [Compound P1020] | – | – | 50 to 100% | 50 to 100% | –
C/C(=C\C(c1cc(Cl)cc(Cl)c1)C(F)(F)F)c1ccc(-n2cncn2)cc1 (stereo not shown) [DC68, (E)-1-(4-(4-(3,5-Dichlorophenyl)-5,5,5-trifluoropent-2-en-2-yl)phenyl)-1H-1,2,4-triazole] | – | – | – | – | A (50-100)
COC(/C=C/c1ccc(-n2cncn2)cc1)(c1cc(Cl)cc(Cl)c1)C(F)(F)F (stereo not shown) [DC70, (E)-1-(4-(3-(3,5-Dichlorophenyl)-4,4,4-trifluoro-3-methoxybut-1-en-1-yl)phenyl)-1H-1,2,4-triazole] | – | – | – | – | A (50-100)
